Consider 26 molecules from paper PMC10673563, “In Vitro and In Vivo Biological Evaluation of Indole-thiazolidine-2,4-dione Derivatives as Tyrosinase Inhibitors” (Molecules, 2023).

One series deals with T1, Mushroom tyrosinase (Agaricus bisporus, UniProt C7FF04).
T1 construct: purchased Sigma-Aldrich (Shanghai, China)
The series can be described thus: Tyrosinase inhibitory activity assay (L-DOPA, absorbance 475 nm). It counts as biochemical. As to conditions: for inhibition at 32 µM: initial concentration of 32 μM. How it is done:
The tyrosinase inhibitory activities of compounds 5a~5z were determined according to previous reports. In brief, 10 μL of compound was added into 140 μL of tyrosinase, incubated for 5 min at room temperature. Then, 50 μL of L-DOPA was added, followed by the measurement of absorbance change at 475 nm. The inhibition rate at different concentrations was calculated and compared to the blank control.

Series [1] has as its system tyrosinase activity in B16F10 cells. The series can be described thus: Tyrosinase activity in B16F10 cells. As to conditions: 16 and 32 μM, 48 h. Type of series: cell-based. How it is done:
The tyrosinase inhibitory activity of 5w in B16F10 cells was determined. B16F10 cells (1 × 10^5 cells/well) were seeded into the 6-well plate for 24 h and subsequently treated with compound 5w or kojic acid for another 48 h. Then, the harvested cells were suspended into the appropriate amount of Triton X-100 (1%) and frozen for 1 h at −80 °C. After it had thawed, the mixture was centrifuged to collect the supernatant. Then, its protein concentration was determined using a BCA Kit. After 20 μL of L-DOPA (10 mM) was added into 80 μL of protein solution, the absorbance change at 475 nm was measured.

The next series relates to B16F10 cells. The series can be described thus: Cell cytotoxicity (MTT). Type of series: cell-based. As to conditions: 4~32 μM, 48 h. How it is done:
The effects of compound 5w and kojic acid on the cells’ viability were determined using the MTT method. B16F10 cells (5000 cells/well) were seeded into the 96-well plate for 24 h, followed by the treatment of compound 5w or kojic acid (4~32 μM) for another 48 h. Then, MTT solution (0.5 mg/mL) was added and incubated for 4 h. DMSO (100 μL) was used to dissolve the violet precipitates, and then the mixture was measured for its absorbance at 570 nm.

In series [2] the test system is tyrosinase activity in zebrafish. The series can be described thus: Tyrosinase activity in zebrafish. As to conditions: zebrafish embryos. It counts as in vivo. How it is done: The embryos treated with compound 5w or kojic acid were lysed in PBS, followed by centrifugation to obtain the supernatant. The appropriate amount of supernatant, equal L-DOPA (5 mg/mL), was added and the absorbance at 475 nm was determined.

Series [3] relates to melanogenesis in B16F10 cells. The series can be described thus: Melanin content in B16F10 cells. It counts as cell-based. As to conditions: 16 and 32 μM, 48 h. How it is done:
B16F10 cell treatment was consistent with the above method. The harvested cells were suspended into NaOH (1 M, 200 μL). After boiling for 1 h, the mixture was measured to determine the absorbance change at wavelength of 405 nm.

Series [4] deals with melanogenesis in zebrafish. The series can be described thus: Melanin content in zebrafish (microscope, Image J). The settings on record: compared to control embryo. Type of series: in vivo. How it is done: The embryos treated with compound 5w or kojic acid were observed under a microscope and the melanin content was assayed using Image J software.

Some results are limits rather than exact numbers.

T1 sequence (C7FF04 1-392): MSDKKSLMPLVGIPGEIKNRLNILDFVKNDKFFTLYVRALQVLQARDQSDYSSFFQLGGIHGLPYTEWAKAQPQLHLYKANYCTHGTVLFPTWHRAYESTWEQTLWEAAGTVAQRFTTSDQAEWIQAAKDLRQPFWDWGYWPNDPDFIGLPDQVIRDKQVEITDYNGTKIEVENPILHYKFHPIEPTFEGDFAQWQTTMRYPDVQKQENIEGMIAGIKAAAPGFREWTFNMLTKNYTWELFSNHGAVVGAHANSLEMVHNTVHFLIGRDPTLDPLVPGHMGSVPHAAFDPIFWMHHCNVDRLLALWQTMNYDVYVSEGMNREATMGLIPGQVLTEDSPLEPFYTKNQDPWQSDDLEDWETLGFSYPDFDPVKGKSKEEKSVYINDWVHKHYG

`O=C(CN1C(=O)S/C(=C\c2ccccc2)C1=O)NCCc1c[nH]c2ccccc12` [5a] registered an inhibition at 32 µM at Mushroom tyrosinase of 14.2%.
In turn, `Cc1ccccc1/C=C1\SC(=O)N(CC(=O)NCCc2c[nH]c3ccccc23)C1=O` [5b] gave an inhibition at 32 µM against Mushroom tyrosinase of 19.3%.
Still for that read-out and setting: under `Cc1cccc(/C=C2\SC(=O)N(CC(=O)NCCc3c[nH]c4ccccc34)C2=O)c1` [5c] stands 33.2%; under `Cc1ccc(/C=C2\SC(=O)N(CC(=O)NCCc3c[nH]c4ccccc34)C2=O)cc1` [5d], 15.1%.
In turn, `O=C(CN1C(=O)S/C(=C\c2ccccc2F)C1=O)NCCc1c[nH]c2ccccc12` [5e] returned an inhibition at 32 µM against Mushroom tyrosinase of 16.5%.
At Mushroom tyrosinase, `O=C(CN1C(=O)S/C(=C\c2cccc(F)c2)C1=O)NCCc1c[nH]c2ccccc12` [5f] came in with an inhibition at 32 µM of 32.6%.
The same measure, in the same setting: under `O=C(CN1C(=O)S/C(=C\c2ccc(F)cc2)C1=O)NCCc1c[nH]c2ccccc12` [5g] stands 27.4%; under `O=C(CN1C(=O)S/C(=C\c2ccccc2Cl)C1=O)NCCc1c[nH]c2ccccc12` [5h], 16.8%.
At Mushroom tyrosinase, `O=C(CN1C(=O)S/C(=C\c2cccc(Cl)c2)C1=O)NCCc1c[nH]c2ccccc12` [5i] yielded an inhibition at 32 µM of 37.6%.
Same read-out and setting: under `O=C(CN1C(=O)S/C(=C\c2ccc(Cl)cc2)C1=O)NCCc1c[nH]c2ccccc12` [5j] stands 36.6%; under `O=C(CN1C(=O)S/C(=C\c2ccccc2Br)C1=O)NCCc1c[nH]c2ccccc12` [5k], 31.7%.
On to `O=C(CN1C(=O)S/C(=C\c2cccc(Br)c2)C1=O)NCCc1c[nH]c2ccccc12` [5l], for which, at Mushroom tyrosinase, the 50% inhibitory concentration (IC50) stood at 13.3 µM and the inhibition at 32 µM is above 70%.
The molecule `O=C(CN1C(=O)S/C(=C\c2ccc(Br)cc2)C1=O)NCCc1c[nH]c2ccccc12` [5m] showed an inhibition at 32 µM at Mushroom tyrosinase of 19.5%.
The same measure, in the same setting: then `O=C(CN1C(=O)S/C(=C\c2ccccc2C(F)(F)F)C1=O)NCCc1c[nH]c2ccccc12` [5n], with 3.8%; and `O=C(CN1C(=O)S/C(=C\c2cccc(C(F)(F)F)c2)C1=O)NCCc1c[nH]c2ccccc12` [5o], with 4.5%; and `O=C(CN1C(=O)S/C(=C\c2ccc(C(F)(F)F)cc2)C1=O)NCCc1c[nH]c2ccccc12` [5p], with 3%.
On the same count and under the same terms, then `COc1ccccc1/C=C1\SC(=O)N(CC(=O)NCCc2c[nH]c3ccccc23)C1=O` [5q], with 1%.
`COc1cccc(/C=C2\SC(=O)N(CC(=O)NCCc3c[nH]c4ccccc34)C2=O)c1` [5r] had an inhibition at 32 µM against Mushroom tyrosinase of 2%.
Consider `COc1ccc(/C=C2\SC(=O)N(CC(=O)NCCc3c[nH]c4ccccc34)C2=O)cc1` [5s], for which the inhibition at 32 µM against Mushroom tyrosinase was 1%.
Same read-out and setting: under `O=C(CN1C(=O)S/C(=C\c2ccccc2O)C1=O)NCCc1c[nH]c2ccccc12` [5t] stands 26.9%; under `O=C(CN1C(=O)S/C(=C\c2cccc(O)c2)C1=O)NCCc1c[nH]c2ccccc12` [5u], 36.2%.
Still for that read-out and setting: then `O=C(CN1C(=O)S/C(=C\c2ccc(O)cc2)C1=O)NCCc1c[nH]c2ccccc12` [5v], with 24.6%; and `N#Cc1ccc(/C=C2\SC(=O)N(CC(=O)NCCc3c[nH]c4ccccc34)C2=O)cc1` [5x], with 24.6%.
`O=C(CN1C(=O)S/C(=C\c2cccc([N+](=O)[O-])c2)C1=O)NCCc1c[nH]c2ccccc12` [5y] registered an inhibition at 32 µM against Mushroom tyrosinase of 19.8%.
Same read-out and setting: then `O=C(CN1C(=O)S/C(=C\c2ccc([N+](=O)[O-])cc2)C1=O)NCCc1c[nH]c2ccccc12` [5z], with 19.1%.
Take `O=c1cc(CO)occ1O` [Kojic acid, reference compound]: in series [1], the cellular tyrosinase activity entry is recorded as “could inhibit”. Also, the “effect on cells' viability” value with B16F10 cells is listed as “obvious effects”. Besides, the “tyrosinase activity in zebrafish” value in series [2] is given as “could reduce the tyrosinase activity in zebrafish”. Further, the “melanogenesis in B16F10 cells” value in series [3] was “could inhibit”. For the same molecule, the “grayscale values of whole embryos” value in series [4] (Image J) is “decrease in grayscale values”. Moreover, in series [4] (embryo photos), the “pigmentation of embryo (eyes, yolk sac, notum)” value is recorded as “pigmentation decrease”.
